# Assay results taken from publication PMC11345828 (Journal of Medicinal Chemistry, 2024).
# Read-outs that look alike come from different tables or passages of the source.
# Assays:
# [1] = molecular target: Mcl-1 (Homo sapiens, UniProt Q07820); format: binding; details: read-out: TR-FRET Ki
# Source text: Mixtures containing vehicle without compound served as a negative control, while mixtures containing no protein served as a positive control.
# [2] = test system: NCI-H929 cell line; assay: cells; details: Homo sapiens
# Method: (§1) NCI-H1048 were cultured in custom medium prepared by PanBioTech containing DMEM/F12 + 5% fetal calf serum, 0.005 mg/mL insulin, 0.01 mg/mL transferrin, 30 nM sodium selenite, 10 nM hydrocortisone, 10 nM β-estradiol and […] 2 mM L-glutamine.
# (§2) Suspension cells were plated immediately before compound addition. Adherent cell lines were incubated overnight at 37 °C in a tissue culture incubator prior to compound addition. Compounds were added in triplicates using an HP D300e Digital Dispenser (Hewlett-Packard) or manually at the concentrations indicated and total volumes were normalized using dimethyl sulfoxide (DMSO) backfill, with final DMSO concentration of 0.5%. Control wells were treated with DMSO only.
# [3] = test system: K562 cell line; assay: cells; details: Homo sapiens, K562, read-out: K562 GI50
# Method: as §1, §2
# [4] = A427 NSCLC subcutaneous xenograft model; format: in vivo, mouse; details: female, CB17/Icr-Prkdc(scid)/IcrCrl, mouse, in vivo, single agent
# Method: (§3) After fixation, tumor samples were embedded in paraffin blocks. Two-μm thick sections of each FFPE-block were prepared on a microtome, placed on glass slides and dewaxed. H&E staining was performed using Papanicolaous Solution 1a Harris′ Hematoxylin solution (Merck) and Shandon Eosin Y aqueous (Thermo) on the Gemini stainer (Thermo). […] Analysis was performed using HALO image analysis software 2.1 (Indica Laboratories). Quantification of Ki67 positivity was performed using multiplex IHC module with integrated AI based nucleus detection and a threshold set for positive nuclei was used. Viable tumor area was calculated from H&E staining using AI based classifier Densenet V2.
# (§4) Female BomTac:NMRI-Foxn1nu mice and CB17/Icr-Prkdc(scid)/IcrCrl and were obtained from Taconic Denmark at an age of 6–8 weeks. After arrival of the local animal facility at Boehringer Ingelheim RCV GmbH & Co KG mice were allowed to adjust to housing conditions at least for 5 days before the start of the experiment. Mice were group-housed under pathogen-free and controlled environmental conditions and handled according to the institutional, governmental and European Union guidelines (Austrian Animal Protection Laws, GV-SOLAS and FELASA guidelines). Animal studies were approved by the internal ethics committee and the local governmental committee. To establish subcutaneous tumors mice were injected with 5 × 10^6 A427cells in Matrigel (CB17/Icr-Prkdc(scid)/IcrCrl), 1 × 10^6 NCI-H1048 cells in Matrigel (BomTac:NMRI-Foxn1nu and 5 × 10^6 NCI-H929 cells in Matrigel (CB17/Icr-Prkdc(scid)/IcrCrl). Tumor diameters were measured with a caliper three times a week. The volume of each tumor [in mm^3] was calculated according to the formula “tumor volume = length × diameter^2 × π/6.” To monitor side effects of treatment, mice were inspected daily for abnormalities and body weight was determined three times per week. Animals were sacrificed when the tumors reached a size of 1500 mm^3. […] Tumors were reported as regressing when the tumor volume at a given day was below the tumor volume at treatment start.
# [5] = Metabolic stability in hepatocytes, mouse; format: in vitro ADME; details: incubated with 50% of human serum
# [6] = Metabolic stability in hepatocytes, dog; format: in vitro ADME; details: incubated with 50% of human serum
# [7] = Metabolic stability in hepatocytes, human; format: in vitro ADME; details: incubated with 50% of human serum
# [8] = Aqueous solubility; format: physicochemical; details: aqueous solution; at pH 7.8
# [9] = test system: OATP1B1/ABCC2; assay: Transporter substrate assessment; format: in vitro ADME
# [10] = Mouse IV PK
# Method: (§6) For PK analysis, mice and dogs were administered intravenously with compound formulated either in 10% ethanol and 10% Cremophor EL for mice or in 50% ethanol and 50% PEG500 for dogs. Plasma samples were obtained at predefined time points and compound concentrations in plasma were measured by quantitative HPLC-MS/MS using an internal standard. Calibration and quality control samples were prepared using blank plasma from untreated animals. Samples were precipitated with acetonitrile and injected into a HPLC system (Agilent 1200). […] The HPLC was interfaced by ESI operated in positive ionization mode to a triple quadrupole mass spectrometer (6500+ Triple Quad System, SCIEX) operated in multiple reaction monitoring mode. Chromatograms were analyzed with Analyst (SCIEX) and pharmacokinetic parameters were calculated by noncompartmental analysis using proprietary software.
# [11] = Plasma protein binding; format: in vitro ADME; details: above the limit of quantification of the assay
# [12] = molecular target: Bcl-XL (Homo sapiens, UniProt Q07817); assay: FPA assay, Bcl-XL; format: binding
# Chain of Bcl-XL (Q07817 whole entry, species assumed): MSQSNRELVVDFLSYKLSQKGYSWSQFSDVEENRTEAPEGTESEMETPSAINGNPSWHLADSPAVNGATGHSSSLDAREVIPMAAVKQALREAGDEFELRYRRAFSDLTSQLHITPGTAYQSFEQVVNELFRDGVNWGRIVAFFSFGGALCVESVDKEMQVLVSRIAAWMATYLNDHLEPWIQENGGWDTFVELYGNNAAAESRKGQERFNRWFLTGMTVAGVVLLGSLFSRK
# [13] = Relative plasma protein binding by shift in EC50 in a caspase induction assay, dog; format: in vitro ADME; details: dog vs human
# [14] = NCI-H929 subcutaneous multiple myeloma xenograft model; format: in vivo, mouse; details: female, CB17/Icr-Prkdc(scid)/IcrCrl, mouse, in vivo, single dose IV, NCI-H929 xenograft study
# Method: (§5) Caspase-Glo 3/7 Assay (PROMEGA #G8090) was performed according to manufacturer’s instructions using 200 ng of sample lysate in a total volume of 100 μL per well. 100 μL of the GLO reagent were added, mixed, and incubated for 90 min at room temperature. The plate was measured on an EnSpireTM Plate reader (luminescence, 0.1s).
# as §4
# [15] = test system: NCI-H929 cell line-derived MM xenograft; assay: as above; format: in vivo, mouse; details: 60 and 80 mg/kg, single dose IV
# Method: as §5, §4
# [16] = molecular target: Bcl-2 (Homo sapiens, UniProt P10415); assay: FPA assay, Bcl-2; format: binding
# Chain of Bcl-2 (P10415 whole entry, species assumed): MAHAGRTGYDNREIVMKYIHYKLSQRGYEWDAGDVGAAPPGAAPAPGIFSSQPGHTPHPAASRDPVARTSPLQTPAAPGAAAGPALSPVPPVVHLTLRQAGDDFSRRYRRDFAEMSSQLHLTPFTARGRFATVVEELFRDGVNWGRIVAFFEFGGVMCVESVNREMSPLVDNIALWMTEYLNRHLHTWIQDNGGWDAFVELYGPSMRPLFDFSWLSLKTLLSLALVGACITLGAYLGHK
# [17] = Dog IV PK; details: dosed at 0.5 mg/kg
# Method: as §6
# [18] = Relative plasma protein binding by shift in EC50 in a caspase induction assay, minipig; format: in vitro ADME; details: minipig vs human
# [19] = Metabolic stability in hepatocytes, minipig; format: in vitro ADME; details: incubated with 50% of human serum
# [20] = Excretion study in rat; format: in vivo
# [21] = Relative plasma protein binding by shift in EC50 in a caspase induction assay, rat; format: in vitro ADME; details: rat vs human
# [22] = Metabolic stability in hepatocytes, rat; format: in vitro ADME; details: incubated with 50% of human serum
# [23] = test system: A427 cell line-derived NSCLC xenograft; assay: A427 NSCLC subcutaneous xenograft model; format: in vivo, mouse
# Method: as §3, §4
# [24] = test system: A427 cells; assay: cells; details: Homo sapiens, A-427, read-out: A427 GI50
# Method: (§7) NCI-H1048 were cultured in custom medium prepared by PanBioTech containing DMEM/F12 + 5% fetal calf serum, 0.005 mg/mL insulin, 0.01 mg/mL transferrin, 30 nM sodium selenite, 10 nM hydrocortisone, 10 nM β-estradiol and 4.5 mM 2 mM L-glutamine. […] All cell lines were cultured at 37 °C with 5% CO2 in a humidified incubator and have been regularly tested negatively for mycoplasm contamination.
# [25] = parameters: method as in PMID 37880389; details: including increases in patient troponin I levels; cited from earlier work
# [26] = test system: NCI-H1048 SCLC xenograft; details: topotecan at 2.5 mg/kg q3/4d
# Method: Female BomTac:NMRI-Foxn1nu mice and CB17/Icr-Prkdc(scid)/IcrCrl and were obtained from Taconic Denmark at an age of 6–8 weeks. After arrival of the local animal facility at Boehringer Ingelheim RCV GmbH & Co KG mice were allowed to adjust to housing conditions at least for 5 days before the start of the experiment. […] To establish subcutaneous tumors mice were injected with 5 × 10^6 A427cells in Matrigel (CB17/Icr-Prkdc(scid)/IcrCrl), 1 × 10^6 NCI-H1048 cells in Matrigel (BomTac:NMRI-Foxn1nu and 5 × 10^6 NCI-H929 cells in Matrigel (CB17/Icr-Prkdc(scid)/IcrCrl). Tumor diameters were measured with a caliper three times a week. The volume of each tumor [in mm^3] was calculated according to the formula “tumor volume = length × diameter^2 × π/6.” To monitor side effects of treatment, mice were inspected daily for abnormalities and body weight was determined three times per week. Animals were sacrificed when the tumors reached a size of 1500 mm^3. […] Tumors were reported as regressing when the tumor volume at a given day was below the tumor volume at treatment start.
# [27] = test system: NCI-H1048 cells; assay: cells; details: Homo sapiens, NCI-H1048, read-out: NCI-H1048 GI50
# Method: as §7
# [28] = parameters: method as in PMID 30254093; details: species not given; cited from earlier work
# [29] = NCI-H929, read-out: NCI-H929 GI50
# [30] = docetaxel at 10 mg/kg q7d, single agent
# Chain of Mcl-1 (Q07820 whole entry): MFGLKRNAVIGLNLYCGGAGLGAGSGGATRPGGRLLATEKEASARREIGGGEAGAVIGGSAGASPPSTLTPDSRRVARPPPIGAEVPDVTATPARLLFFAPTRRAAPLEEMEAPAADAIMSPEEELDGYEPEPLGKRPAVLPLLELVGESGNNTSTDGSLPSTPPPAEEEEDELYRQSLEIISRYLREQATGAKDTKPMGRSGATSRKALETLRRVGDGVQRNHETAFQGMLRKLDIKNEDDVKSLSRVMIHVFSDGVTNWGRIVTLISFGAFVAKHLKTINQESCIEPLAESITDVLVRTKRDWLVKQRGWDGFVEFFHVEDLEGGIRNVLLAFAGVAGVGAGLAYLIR
compound,measurement,setting,value
"COc1cc(N2C[C@@H](C)n3c(c(CCCOc4cc(C)c(Cl)c(C)c4)c4ccc(Cl)c(-c5c(C)nn(C)c5C)c43)C2=O)c2c(c1)cc(C(=O)O)n2C [Compound 12, (R)-7-(7-Chloro-10-(3-(4-chloro-3,5-dimethylphenoxy)propyl)-4-methyl-1-oxo-6-(1,3,5-trimethyl-1H-pyrazol-4-yl)-3,4-dihydropyrazino[1,2-a]indol-2(1H)-yl)-5-methoxy-1-methyl-1H-indole-2-carboxylic Acid]",Ki,[1],0.185 ± 0.027 nM
same,GI50,[2]; [29],211 ± 22 nM
same,GI50,[3],> 12500 nM
"COc1c(OCC2CCOCC2)cc(N2C[C@@H](C)n3c(c(CCCOc4cc(C)c(Cl)c(C)c4)c4ccc(Cl)c(-c5c(C)nc(C)nc5C)c43)C2=O)c2c1cc(C(=O)O)n2C [Compound 26, (R)-7-(7-Chloro-10-(3-(4-chloro-3,5-dimethylphenoxy)propyl)-4-methyl-1-oxo-6-(2,4,6-trimethylpyrimidin-5-yl)-3,4-dihydropyrazino[1,2-a]indol-2(1H)-yl)-4-methoxy-1-methyl-5-((tetrahydro-2H-pyran-4-yl)methoxy)-1H-indole-2-carboxylic Acid]",AUC,[4]; 26 at 60 mg/kg q7d IV,552 µM·h
same,metabolic stability in hepatocytes,[5],40 % Qh
same,metabolic stability in hepatocytes,[6],19 % Qh
same,metabolic stability in hepatocytes,[7],12 % Qh
same,solubility,[8],15 mg/mL
same,substrate of OATP1B1/ABCC2,[9],substrate
same,CL,"[10]; mouse IV, dosed at 25 mg/kg",2.2 mL/min/kg
same,reduction in clearance from compound 20,"[10]; mouse IV, relative to compound 20",20 fold
same,Vd,"[10]; mouse, plasma, iv, 25 mg/kg",< 0.1 L/kg
same,clearance,"[10]; mouse, plasma, iv, 25 mg/kg",2.2 mL/min/kg
same,half-life,"[10]; mouse, plasma, iv, 25 mg/kg",3.7 h
same,fraction unbound,[11],< 0.002
same,Ki,[12],36000 nM
same,plasma protein binding lower than in human,[13],~2 fold
same,AUC,[14]; 60 mg/kg,442 µM·h
same,AUC,[14]; 80 mg/kg,635 µM·h
same,change in the median weight of the mice,[15],no significant change
same,Ki,[16],1800 nM
same,AUC/Dose,[17],3860 nM*h/mpk
same,CL,[17],5.2 mL/min/kg
same,CL (% hep blood flow),[17],17 % hep blood flow
same,plasma protein binding lower than in human,[18],~2 fold
same,metabolic stability in hepatocytes,[19],35 % Qh
same,biliary clearance as share of the total clearance,[20],60–75%
same,plasma protein binding lower than human,[21],3 fold
same,metabolic stability in hepatocytes,[22],22 % Qh
"CC(=O)O[C@@]12CO[C@@H]1C[C@H](O)[C@@]1(C)C(=O)[C@H](O)C3=C(C)[C@@H](OC(=O)[C@H](O)[C@@H](NC(=O)OC(C)(C)C)c4ccccc4)C[C@@](O)([C@@H](OC(=O)c4ccccc4)[C@H]21)C3(C)C [Docetaxel, docetaxel]",TGI d21,[23]; [30],112%
same,Tumor regressions d21,[23]; [30],8 x/8
same,tumor outgrowth began around day after treatment start,[23]; docetaxel at 10 mg/kg q7d alone,~15 days
same,AUC,[4]; docetaxel at 10 mg/kg q7d,15.8 µM·h
same,GI50,[24],4400 nM
"COCc1cc(N2C[C@@H](C)n3c(c(CCCOc4cc(C)c(Cl)c(C)c4)c4ccc(Cl)c(-c5c(C)nn(C)c5C)c43)C2=O)c2c(c1)cc(C(=O)O)n2C [Compound 14, (R)-7-(7-Chloro-10-(3-(4-chloro-3,5-dimethylphenoxy)propyl)-4-methyl-1-oxo-6-(1,3,5-trimethyl-1H-pyrazol-4-yl)-3,4-dihydropyrazino[1,2-a]indol-2(1H)-yl)-5-(methoxymethyl)-1-methyl-1H-indole-2-carboxylic Acid]",Ki,[1],0.2 ± 0.065 nM
same,GI50,"[2]; NCI-H929, read-out: H929 GI50",112 nM
same,GI50,[2]; [29],122 ± 16 nM
same,GI50,[3],> 12500 nM
"COc1ccc(N2C[C@@H](C)n3c(c(CCCOc4cc(C)c(Cl)c(C)c4)c4ccc(Cl)c(-c5c(C)nn(C)c5C)c43)C2=O)c2c1cc(C(=O)O)n2C [Compound 13, (R)-7-(7-Chloro-10-(3-(4-chloro-3,5-dimethylphenoxy)propyl)-4-methyl-1-oxo-6-(1,3,5-trimethyl-1H-pyrazol-4-yl)-3,4-dihydropyrazino[1,2-a]indol-2(1H)-yl)-4-methoxy-1-methyl-1H-indole-2-carboxylic Acid]",Ki,[1],0.091 ± 0.003 nM
same,GI50,[2]; [29],110 ± 38 nM
same,GI50,[3],> 7100 nM
CO[C@]1(CN2CCN3CCCC[C@@H]3C2)/C=C/C[C@H](C)[C@@H](C)S(=O)(=O)NC(=O)c2ccc3c(c2)N(C[C@@H]2CC[C@H]21)C[C@@]1(CCCc2cc(Cl)ccc21)CO3 [Compound 4],toxicity reported in the clinic,[25],dose limiting toxicities
COc1ccccc1-c1nccc(COc2ccccc2C[C@@H](Oc2ncnc3sc(-c4ccc(F)cc4)c(-c4ccc(OCCN5CCN(C)CC5)c(Cl)c4C)c23)C(=O)O)n1 [Compound 1],toxicity reported in the clinic,[25],dose limiting toxicities
Cc1c(Cl)c2c(Cl)c(C)c1-c1c(-c3ccc(F)cc3)sc3ncnc(c13)O[C@@H](C(=O)O)Cc1cc(ccc1OCc1ccnc(-c3ccc(OC[C@H]4COCCO4)cc3)n1)OC[C@@H](CN1CCN(C)CC1)O2 [Compound 5],toxicity reported in the clinic,[25],dose limiting toxicities
"Cc1cc(N2C[C@@H](C)n3c(c(CCCOc4cc(C)c(Cl)c(C)c4)c4ccc(Cl)c(-c5c(C)nn(C)c5C)c43)C2=O)c2c(c1)cc(C(=O)O)n2C [Compound 11, (R)-7-(7-Chloro-10-(3-(4-chloro-3,5-dimethylphenoxy)propyl)-4-methyl-1-oxo-6-(1,3,5-trimethyl-1H-pyrazol-4-yl)-3,4-dihydropyrazino[1,2-a]indol-2(1H)-yl)-1,5-dimethyl-1H-indole-2-carboxylic Acid]",Ki,[1],0.205 ± 0.018 nM
same,GI50,[2]; [29],140 ± 110 nM
same,GI50,[3],> 12500 nM
"CC[C@@]1(O)C(=O)OCc2c1cc1n(c2=O)Cc2cc3c(CN(C)C)c(O)ccc3nc2-1 [Topotecan, topotecan]",TGI d16,[26],94%
same,Tumor regression d16,[26],1 x/8
same,GI50,[27],14 nM
CO[C@H]1/C=C/C[C@H](C)[C@@H](C)S(=O)(=O)NC(=O)c2ccc3c(c2)N(C[C@@H]2CC[C@H]21)C[C@@]1(CCCc2cc(Cl)ccc21)CO3 [Compound 3],T,[28],14 h
same,Vss,[28],0.6 L/kg
